According to PubChem BioAssay AID330 (DTP/NCI, 2004):
Where “and” joins values, the source holds several entries; their conditions need not be identical. Equal values may be shown once. Inconclusive results and toxic doses are left out.

Tested on: P388 leukemia ip, CD2F1 mice, survival T/C
Assay: NCI In Vivo Anticancer Drug Screen. Data for tumor model P388 Leukemia (intraperitoneal) in CD2F1 (CDF1) mice
Details: endpoint: median survival time, higher = longer survival
In short: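 Mice carrying the transplanted tumor received test compound or vehicle. Survival was recorded in each group, and the value is the treated-group measurement divided by that of the vehicle-treated control group.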

[1] = dose: 50.0 mg/kg/injection, schedule: Q01DX009 (ip), vehicle: saline with Tween-80
[2] = dose: 100.0 mg/kg/injection, schedule: Q01DX009 (ip), vehicle: saline with Tween-80
[3] = dose: 50.0 mg/kg/injection, schedule: Q01DX005 (ip), vehicle: saline
[4] = dose: 100.0 mg/kg/injection, schedule: Q01DX005 (ip), vehicle: saline
[5] = dose: 200.0 mg/kg/injection, schedule: Q01DX005 (ip), vehicle: saline
[6] = dose: 100.0 mg/kg/injection, schedule: Q01DX009 (ip), vehicle: saline
[7] = dose: 60.0 mg/kg/injection, schedule: Q01DX005 (ip), vehicle: Klucel (hydroxypropylcellulose) (HPC)
[8] = dose: 120.0 mg/kg/injection, schedule: Q01DX005 (ip), vehicle: Klucel (hydroxypropylcellulose) (HPC)
[9] = dose: 240.0 mg/kg/injection, schedule: Q01DX005 (ip), vehicle: Klucel (hydroxypropylcellulose) (HPC)
[10] = dose: 50.0 mg/kg/injection, schedule: Q01DX005 (ip), vehicle: Klucel (hydroxypropylcellulose) (HPC)
[11] = dose: 100.0 mg/kg/injection, schedule: Q01DX005 (ip), vehicle: Klucel (hydroxypropylcellulose) (HPC)
[12] = dose: 100.0 mg/kg/injection, schedule: Q01DX001 (ip), vehicle: saline with Tween-80
[13] = dose: 60.0 mg/kg/injection, schedule: Q01DX005 (ip), vehicle: saline with Tween-80
[14] = dose: 120.0 mg/kg/injection, schedule: Q01DX005 (ip), vehicle: saline with Tween-80
[15] = dose: 200.0 mg/kg/injection, schedule: Q01DX009 (ip), vehicle: saline with Tween-80
[16] = dose: 200.0 mg/kg/injection, schedule: Q01DX005 (ip), vehicle: Klucel (hydroxypropylcellulose) (HPC)
[17] = dose: 240.0 mg/kg/injection, schedule: Q01DX005 (ip), vehicle: saline with Tween-80

C1=C[N-]c2c3c(ccc2=C1)=CC=C[N-]3.C1=C[N-]c2c3c(ccc2=C1)=CC=C[N-]3.C1C[N-]C2C(C1)CCC1CC[N-]CC12.[Ni]
T/C (dose: 3.12 mg/kg/injection, schedule: Q01DX005 (ip), vehicle: saline): 97 % of control
T/C (dose: 6.25 mg/kg/injection, schedule: Q01DX005 (ip), vehicle: saline): 96 % of control

CC(C)(C)N(OC(=O)c1ccc([N+](=O)[O-])cc1)c1ccccc1
T/C (dose: 25.0 mg/kg/injection, schedule: Q01DX009 (ip), vehicle: saline with Tween-80): 98 % of control
T/C [1]: 97 % of control
T/C [2]: 95 % of control

CC(=O)NC1C(Nc2ccc(S(=O)(=O)Nc3cc(C)nc(C)n3)cc2)OC(CO)C(O)C1O (stereo not drawn)
T/C [3]: 108 % of control
T/C [4]: 98 % of control
T/C [5]: 101 % of control

CCCCCCCOCC(=O)O
T/C [1]: 100 % of control
T/C [2]: 94 % of control

CCN(CC)C(C)CN1c2ccccc2Sc2ccccc21 (stereo not drawn)
T/C [3]: 100 % of control
T/C [4]: 99 % of control
T/C [5]: 100 % of control

CC(C)(C)C(=O)CP(=O)(O)O (tested in a mixture with another compound)
T/C (dose: 50.0 mg/kg/injection, schedule: Q01DX009 (ip), vehicle: saline): 105 % of control
T/C [6]: 101 % of control

Cc1cccc(=N)n1CCC(=O)O
T/C [6]: 90 % of control
T/C (dose: 200.0 mg/kg/injection, schedule: Q01DX009 (ip), vehicle: saline): 100 % of control

CN1C(=S)C(=N)OC1c1ccccc1F (stereo not drawn)
T/C [7]: 106 % of control
T/C [8]: 105 % of control
T/C [9]: 103 % of control

CC(NNC(=S)N1CCN(c2ccccn2)CC1)c1nccc2ccccc12 (stereo not drawn)
T/C (dose: 12.5 mg/kg/injection, schedule: Q04DX002 (ip), vehicle: Klucel (hydroxypropylcellulose) (HPC)): 100 % of control
T/C (dose: 25.0 mg/kg/injection, schedule: Q04DX002 (ip), vehicle: Klucel (hydroxypropylcellulose) (HPC)): 100 % of control
T/C (dose: 50.0 mg/kg/injection, schedule: Q04DX002 (ip), vehicle: Klucel (hydroxypropylcellulose) (HPC)): 103 % of control
T/C (dose: 100.0 mg/kg/injection, schedule: Q04DX002 (ip), vehicle: Klucel (hydroxypropylcellulose) (HPC)): 122 % of control and 124 % of control
T/C (dose: 200.0 mg/kg/injection, schedule: Q04DX002 (ip), vehicle: Klucel (hydroxypropylcellulose) (HPC)): 96 % of control

COc1ccc(C2(C3NCCC4=C3CCCC4)CC2)cc1 (stereo not drawn)
T/C [10]: 97 % of control
T/C [11]: 100 % of control

CC12CC3(C)CC(C)(C1)CC(C(Cl)C(=O)NC1CCCCC1)(C2)C3 (stereo not drawn)
T/C (dose: 50.0 mg/kg/injection, schedule: Q01DX009 (ip), vehicle: Klucel (hydroxypropylcellulose) (HPC)): 110 % of control
T/C (dose: 100.0 mg/kg/injection, schedule: Q01DX009 (ip), vehicle: Klucel (hydroxypropylcellulose) (HPC)): 107 % of control
T/C (dose: 200.0 mg/kg/injection, schedule: Q01DX009 (ip), vehicle: Klucel (hydroxypropylcellulose) (HPC)): 97 % of control

O=NN(C(=O)NC1CCCC1)C1CCCC1
T/C (dose: 25.0 mg/kg/injection, schedule: Q01DX001 (ip), vehicle: distilled water + Tween-80): 106 % of control
T/C (dose: 50.0 mg/kg/injection, schedule: Q01DX001 (ip), vehicle: distilled water + Tween-80): 105 % of control
T/C (dose: 100.0 mg/kg/injection, schedule: Q01DX001 (ip), vehicle: distilled water + Tween-80): 108 % of control
T/C (dose: 200.0 mg/kg/injection, schedule: Q01DX001 (ip), vehicle: distilled water + Tween-80): 110 % of control
T/C (dose: 400.0 mg/kg/injection, schedule: Q01DX001 (ip), vehicle: distilled water + Tween-80): 110 % of control

CCCCCCCOc1ccc(OCCCC[N+]2(CC)CCCCC2)cc1
T/C (dose: 1.56 mg/kg/injection, schedule: Q01DX009 (ip), vehicle: saline): 103 % of control
T/C (dose: 3.12 mg/kg/injection, schedule: Q01DX009 (ip), vehicle: saline): 100 % of control
T/C (dose: 6.25 mg/kg/injection, schedule: Q01DX009 (ip), vehicle: saline): 102 % of control

Cc1cc2ncc(-c3ccccc3)nc2cc1C
T/C (dose: 25.0 mg/kg/injection, schedule: Q01DX001 (ip), vehicle: saline with Tween-80): 100 % of control
T/C (dose: 50.0 mg/kg/injection, schedule: Q01DX001 (ip), vehicle: saline with Tween-80): 100 % of control
T/C [12]: 89 % of control and 90 % of control

Cc1ccc(C=C(C#N)C#N)o1
T/C [13]: 102 % of control
T/C [14]: 105 % of control

CNc1nc(=O)n(-c2ccccc2)c(Cl)c1CCO
T/C (dose: 75.0 mg/kg/injection, schedule: Q01DX001 (ip), vehicle: Klucel (hydroxypropylcellulose) (HPC)): 104 % of control
T/C (dose: 150.0 mg/kg/injection, schedule: Q01DX001 (ip), vehicle: Klucel (hydroxypropylcellulose) (HPC)): 101 % of control
T/C (dose: 300.0 mg/kg/injection, schedule: Q01DX001 (ip), vehicle: Klucel (hydroxypropylcellulose) (HPC)): 100 % of control

CCOC(=O)C1C(=O)CN(C(=O)OC)C1C(=O)OCC (stereo not drawn)
T/C (dose: 50.0 mg/kg/injection, schedule: Q01DX005 (ip), vehicle: saline with Tween-80): 99 % of control
T/C (dose: 100.0 mg/kg/injection, schedule: Q01DX005 (ip), vehicle: saline with Tween-80): 95 % of control
T/C (dose: 200.0 mg/kg/injection, schedule: Q01DX005 (ip), vehicle: saline with Tween-80): 95 % of control

C=C1C=C(C)C(=O)O1
T/C [12]: 99 % of control
T/C (dose: 200.0 mg/kg/injection, schedule: Q01DX001 (ip), vehicle: saline with Tween-80): 103 % of control
T/C (dose: 400.0 mg/kg/injection, schedule: Q01DX001 (ip), vehicle: saline with Tween-80): 105 % of control

CC(=O)/C(C=NC1CC(N=C/C(C(C)=O)=C(/C)O)CC(N=C/C(C(C)=O)=C(/C)O)C1)=C(/C)O (stereo not drawn)
T/C [1]: 101 % of control
T/C [2]: 101 % of control
T/C [15]: 93 % of control

O=[N+]([O-])c1ccc2c(c1)Oc1cccnc1[Se]2
T/C [7]: 105 % of control
T/C [8]: 95 % of control
T/C [9]: 90 % of control

CN1C(=O)C2C(C(=O)O)C2N(C)C1=O (stereo not drawn)
T/C (dose: 10.0 mg/kg/injection, schedule: Q04DX003 (ip), vehicle: saline): 99 % of control
T/C (dose: 100.0 mg/kg/injection, schedule: Q04DX003 (ip), vehicle: saline): 99 % of control
T/C (dose: 200.0 mg/kg/injection, schedule: Q04DX003 (ip), vehicle: saline): 99 % of control and 101 % of control
T/C (dose: 400.0 mg/kg/injection, schedule: Q04DX003 (ip), vehicle: saline): 100 % of control and 101 % of control

CCC[CH2][Sn]([F])([F])[CH2]CCC
T/C (dose: 6.25 mg/kg/injection, schedule: Q04DX003 (ip), vehicle: saline): 107 % of control
T/C (dose: 12.5 mg/kg/injection, schedule: Q04DX003 (ip), vehicle: saline): 114 % of control
T/C (dose: 25.0 mg/kg/injection, schedule: Q04DX003 (ip), vehicle: saline): 118 % of control

O=S(Cl)C(Cl)=C(Cl)Cl (stereo not drawn)
T/C [10]: 106 % of control
T/C [11]: 104 % of control
T/C [16]: 103 % of control

CC(=O)Nc1ccc(C(=O)O)cc1[N+](=O)[O-]
T/C [2]: 99 % of control
T/C [15]: 99 % of control
T/C (dose: 400.0 mg/kg/injection, schedule: Q01DX009 (ip), vehicle: saline with Tween-80): 97 % of control

Nc1nnc(CCCCCCCc2nnc(N)o2)o1
T/C [13]: 104 % of control
T/C [14]: 99 % of control
T/C [17]: 105 % of control

CCCCCCCN(CCCCCCC)C(=N)c1ccc(OC)c2ccccc12
T/C (dose: 6.25 mg/kg/injection, schedule: Q01DX005 (ip), vehicle: Klucel (hydroxypropylcellulose) (HPC)): 101 % of control
T/C (dose: 12.5 mg/kg/injection, schedule: Q01DX005 (ip), vehicle: Klucel (hydroxypropylcellulose) (HPC)): 101 % of control
T/C (dose: 25.0 mg/kg/injection, schedule: Q01DX005 (ip), vehicle: Klucel (hydroxypropylcellulose) (HPC)): 89 % of control

C/C(=C1/N=C(c2ccccc2)OC1=O)c1cccs1
T/C [10]: 106 % of control
T/C [11]: 100 % of control
T/C [16]: 96 % of control

CCCCc1c(O)c2c(=O)n(C)c(=O)n3c4ccccc4n(c1=O)c23
T/C [13]: 100 % of control
T/C [14]: 89 % of control
T/C [17]: 90 % of control
